Ends that are not written are not given here.
Columns and labels:
SD rats = assay: Healing of acute mechanical skin injuries in rats; assay type: in vivo, rat; conditions: for Wound healing rate: rats, acute mechanical injury, topical once a day, polypeptide 8 μg/cm^2, GeneTime 40 IU/cm^2, Mean ± SD, n = 6
Method: Experimental animals: SD male rats, SPF grade, 6 weeks old, weighing 180-220 g, from Beijing Vital River Laboratory Animal Technology Co., Ltd.; animal license number: SCXK (Beijing) 2016-0006; and certification number: NO.110011210104746538.
Experimental method: SPF grade SD rats were housed in clean and sterilized cages, and were given water and feeds and padding replacement at regular intervals every day. The cultivation was kept at a temperature of 20-26° C. with a humidity of 40%-70%. The rats were kept for one week to adapt to the environment. According to the random grouping method, the animals were divided into 3 groups: model control group (normal saline), GeneTime group (40 IU/cm^2, recombinant human epidermal growth factor topical solution, from Shenzhen Watsin Genetech Ltd.), and subject polypeptide group (8 μg/cm^2), with 6 animals in each group. After the rats were successfully anesthetized by intraperitoneal injection of 3% pentobarbital sodium, the hair at 1 cm from the expected wound edge was cut off, the expected wound area was first disinfected with iodophor, then locally disinfected with 75% alcohol, and a round full layer of skin wound with a diameter of 1.5 cm was made at the middle of the ear line down to 4 cm below the back, near the cervical side, with the spine as the middle line, as deep as the muscular layer. The same sized rubber ring was used to fix the surrounding skin to form an animal model of acute mechanical injury. After modeling, the rats' wounds were exposed to the environment and fed in individual cages. Upon changing dressings, debridement was first performed with iodophor, and then the wound was washed with a sterile normal saline and wiped to dryness. Rats in each group were given 40 μL of corresponding drug solution by locally applying to the wound once a day periodically. On Days 0, 3, 7, 10 and 14 of administration, the wounds of each group of rats were photographed, the areas of the wounds were calculated with image analysis software (Image J), and the wound healing rates were calculated according to the formula.

[1] = tested on: HaCaT cells (human immortalized keratinocytes); assay: Proliferation of HaCaT cells (CCK8); assay type: cell-based; conditions: 72 h, 1640 medium with 1% serum, FIG. 1
Method: Experimental method: Human immortalized keratinocytes (HaCAT cells) were adjusted to a concentration of 1.0*10^5 to 5.0*10^5/mL for passaging, and cultured at 37° C. and 5% CO2 for 24-36 hours for the biological activity detection. The cells were digested with 0.25% pancreatin for 5 min, a 1640 whole blood medium with more than 1 times the volume of pancreatin was added to stop digestion, a cell suspension was collected and centrifuged at 1000 RPM for 3 min, the supernatant was discarded, 2 mL of 1640 whole blood medium was added to resuspend the cells, 20 uL cell suspension was taken, stained with AOPI, and then the concentration of cells in the suspension was detected with a cell counter, the cell suspension was formulated with 1640 medium with 10% serum to a concentration of 5*10^4/mL and seeded into 96-well cell culture plates with 100 μL per well, i.e. 5000 cells/well, and cultured overnight at 37° C. and 5% CO2.
After 24 hours, the original culture medium was discarded and 100 μL of each of different concentrations of polypeptide solutions formulated with 1640 culture medium with 1% serum was added. […] The mixtures were cultured at 37° C. and 5% CO2 for 72 h, and the proliferation of the HaCaT cell line was detected by the CCK8 kit.

[2] = tested on: HMEC-1 cells (human microvascular endothelial cells); assay: Proliferation of HMEC-1 cells (CCK-8); assay type: cell-based; conditions: 48 hours, 0% serum medium, FIG. 2
Method: Experimental method: Human microvascular endothelial cells (HMEC-1 cells) were cultured in 10% serum medium at 37° C. and 5% CO2, the culture fluid was changed every 1-2 days, and the cell concentration was controlled to be 4*10^6 cells/mL for passaging. The cells were collected and prepared into a concentration of 4*10^4 cells/mL with a serum-free medium, seeded into a 96-well cell culture plate with 100 uL per well, i.e., 4000 cells/well, and cultured at 37° C. and 5% CO2 to be adherent.
The polypeptide was dissolved in PBS solution and prepared into a stock solution with a concentration of 1 mg/mL. The polypeptide stock solution was prepared with 0% serum medium to test concentrations as the experimental groups; in the same manner, recombinant human vascular endothelial growth factor VEGF (100 ng/mL) was prepared and added as positive control; and for the blank control group, the same volume of 0% serum medium without drugs was added. For all the groups, 5 duplicate wells were incubated at 37° C. and 5% CO2 for 48 hours. The CCK-8 was used to detect cell proliferation: serum-free medium containing 10% CCK-8 was added to each well, and absorbances were measured at 450 nm by microplate reader after incubation in an incubator for 2 hours.

Work on PAAEPVPL [polypeptide] yielded a Wound healing rate (SD rats; Day 0 (baseline)) of 0.00 ± 0.00%, a Wound healing rate (SD rats; Day 3) of −23.77 ± 6.16% and a Wound healing rate (SD rats; Day 7) of −10.78 ± 7.90%. For the same sequence, the Wound healing rate (SD rats; Day 10) was 18.90 ± 17.63%, the “Wound healing after mechanical skin injury in rats (statement in words)” value (SD rats; Day 14, 8 μg/cm^2, vs model control) was “significant promotion of wound healing” and the Wound healing rate (SD rats; Day 14) was 88.42 ± 4.57 %. The “Proliferation-promoting effect on the HaCaT cell line” value [1] was “significant effect of promoting proliferation” and the “Proliferation-promoting effect on the HMEC-1 cell line” value [2] was “significant effect of promoting proliferation”.
